Experiment [1] deals with Stapphylococcus aureus (gram positive bacterium number 25923). Put plainly: Inactivation of S. aureus by 300 ns electric pulses combined with antibiotic (CFU plating). Type of experiment: cell-based, Staphylococcus aureus. Here is the method: (§1) Equipment. Used was a capacitor based Blumlein pulse generator with a spark gap switch to produce trapezoidal EPs of 300 ns duration at the peak with rise and fall times close to 50 ns. Multiple pulses were delivered at a frequency of 1 Hz.
(§2) The samples were treated in a standard electroporation cuvette (Dot Scientific) whose resistance must match the pulse generator's impedance to prevent pulse reflection. Utilizing Luria broth, containing 0.5% NaCl, in a cuvette with gap distances of 1 mm and 2 mm yielded the best electrical match (no reflections in the measured signal). Used were 2 mm cuvettes to ensure consistency between tests, and the applied voltage was measured across the cuvette using a LeCroy PPE 20 kV high voltage probe with a 1000:1 attenuation feeding into a TeleDyne LeCroy Waverunner 6 Zi Oscilloscope capable of measuring signals up to 4 GHz. Assuming a purely parallel plate geometry with minimal fringing gives an electric field E=V/d, where V is the peak voltage of the applied pulse and d is the gap distance.
(§3) Sample Preparation. These experiments assessed Stapphylococcus aureus (gram positive bacterium number 25923) from ATCC and Esherichia coli (gram negative bacterium number 25922) inoculated in luria broth (LB Broth Lennox, powder microbial growth medium. SIGMA-ALDRICH) by taking 8 mL of broth in a 50 mL sterile conical tube and incubating in a shaker for 20 h at 37° C. The sample was then diluted with fresh Luria broth until attaining an optical density of 0.25 for 100 μL on a photospectrometer (Molecular Devices) for a wavelength of 562 nm as measured in a 96-well plate. The optical density, which varies with growth or tube volume, was determined experimentally and set between 1×10^8 and 1.5×10^8 colony forming units (CFUs)/mL for the samples to be pulsed. These samples were then plated at dilutions between 10-6 and 100 (no dilution) depending on the effectiveness of the pulse treatments.
(§4) Electric Pulse Treatment Protocol. […] Although no consensus exists on a universal scaling law for applied EP “dose,” we fixed the energy density
(§5) [formula] • where N is the number of pulses and τ is the pulse duration. Fixing U for E=40, 30, and 20 kV/cm gave N=250, 445, and 1000 pulses, respectively. Cultures were plated as described below.
Cuvettes were filled with 365 μL of sample (sufficient to just cover the electrodes) and then 250 μL of molecular biology grade mineral oil was placed on top. Keeping the samples on ice upon achieving the required dilution further reduced experimental variability by slowing biological processes, such as fission This facilitated the assessment of the inactivation efficiency of EPs, drugs, and combined treatments.
Tests used the clinically relevant, bactericidal drug tobramycin, which targets the 30S and 50S ribosome complex and has a clinical dose from 4 to 5 μg/mL and rifampicin, which inhibits bacterial […]. Added were 0.2, 2, and 20 μg/mL of each drug to the initial bacterial dilutions prior to pulsing. Samples were immediately placed on ice to minimize cell division and reduce variability. These aliquots were also used to plate individual unpulsed controls for each drug concentration.
(§6) Plating. Plating was done on standard disposable tissue culture Petri dishes from VWR (15 cm diameter, 10 mm height) and covered with 10 mL of agar in luria broth (Agar, microbiology tested powder, SIGMA-ALDRICH), which was prepared by adding 20 g of LB lennox (SIGMA-ALDRICH) and 15 g/L of agar to water and then autoclaved.
(§7) Plated were samples at dilutions of 10^−6 and 10^−3 for low and high electric field treatments, respectively, and at 10^−6 and 10^−5 for controls All samples containing 100 μL of pulsed or diluted cultures were plated on LB agar plates and counted after overnight incubation at 37° C. […]

Experiment [2] has as its system Esherichia coli (gram negative bacterium number 25922). Put plainly: Inactivation of E. coli by 300 ns electric pulses combined with antibiotic (CFU plating). Also on record: synergy, E. coli: dose or concentration left out as unconfirmed. It is filed as cell-based, Escherichia coli. As to the method:
as §1
as §2, with “Utilizing Luria broth, containing 0.5% NaCl, in a cuvette with gap distances of 1 mm and 2 mm yielded the best electrical match (no reflections in the measured signal).” left out
as §3, §4, §5
Cuvettes were filled with 365 μL of sample (sufficient to just cover the electrodes) and then 250 μL of molecular biology grade mineral oil was placed on top.
Added were 0.2, 2, and 20 μg/mL of each drug to the initial bacterial dilutions prior to pulsing. Samples were immediately placed on ice to minimize cell division and reduce variability. These aliquots were also used to plate individual unpulsed controls for each drug concentration.
as §6
Plated were samples at dilutions of 10^−6 and 10^−3 for low and high electric field treatments, respectively, and at 10^−6 and 10^−5 for controls All samples containing 100 μL of pulsed or diluted cultures were plated on LB agar plates and counted after overnight incubation at 37° C.
Pulsing with drugs: bacterial samples of both gram-positive S. aureus and gram-negative E. coli strains were pulsed in a solution with 0.2, 2, and 20 μg/mL of tobramycin and compared to an un-pulsed drug-exposed control. Pulsing and plating were performed to ensure that the drug exposure time of the bacteria was approximately fifteen minutes.

Experiment [3] deals with bacteria. Put plainly: Low-dose tobramycin combined with a train of NSEPs, bacterium not specified. Type of experiment: cell-based. The following applies: 0.2 μg/mL, 1/20th of the recommended clinical dose; whole process approximately 15 min.
Description: as §1
as §3, with “These samples were then plated at dilutions between 10-6 and 100 (no dilution) depending on the effectiveness of the pulse treatments.” left out
as §7

Setting [4] is: same energy, different electric fields and number of pulses, different concentrations, vs antibiotic alone.

Molecules are shown by their SMILES. “Also recorded” adds a separate entry of the source.

As for `NC[C@H]1O[C@H](O[C@H]2[C@H](O)[C@@H](O[C@H]3O[C@H](CO)[C@@H](O)[C@H](N)[C@H]3O)[C@H](N)C[C@@H]2N)[C@H](N)C[C@@H]1O` [tobramycin], the “reduction in S. aureus population” value in experiment [1] (20 kV/cm EPs + 0.2 μg/mL) was 10-20%. Moreover, the “log-reduction of S. aureus” value in experiment [1] (20 kV/cm EPs + 2 μg/mL) is recorded as 1.5 log; in experiment [1] (20 kV/cm EPs + 20 μg/mL), 2.6 log. Also, the “synergy (additional inactivation induced by the antimicrobial for a given pulse condition), S. aureus” value in experiment [1] (20 kV/cm pulse trains, 0.2 μg/mL) is recorded as “no synergy”. Moreover, the “synergy, S. aureus” value in experiment [1] (20 kV/cm pulse trains, 2.0 μg/mL) is 1.5 log; in experiment [1] (30 and 40 kV/cm pulse trains, 2 and 20 μg/mL doses) it was “synergies occurred”. Also, the “effect of combining trains of 300 ns EPs with antibiotic on amount of viable S. aureus” value in experiment [1] (setting [4]) was “synergistically reduced; also recorded: significantly greater inactivation”. In addition, the “synergy, E. coli” value was “did not” in experiment [2] (20 kV/cm treatment); “exhibited synergy” in experiment [2] (30 and 40 kV/cm treatments); “experienced synergy” in experiment [2] (any of the applied electric fields, any concentration (FIG. 5B)). Moreover, in experiment [2] (40 kV/cm EPs combined with antibiotic, considered complete sterilization), the “reduction of E. coli” value was “over 9 log-10”. In experiment [2] (setting [4]), the “effect of combining trains of 300 ns EPs with antibiotic on amount of viable E. coli” value is reported as “synergistically reduced; also recorded: significantly greater inactivation”. The “synergy with NSEPs” value in experiment [3] is recorded as “Synergy occurred”.

Values taken from patent US20250195660A1, “INACTIVATING BACTERIA WITH ELECTRIC PULSES AND ANTIBIOTICS” (Purdue Research Foundation, priority 2018, published 2025).
